From ChEMBL document CHEMBL1139332, “Selective activity against Mycobacteriumtuberculosis of new quinoxaline 1,4-di-N-oxides” (Bioorg Med Chem, 2009)
≈ marks a conversion by molar mass, not a printed value.

Key:
[1] = system: Mycobacterium tuberculosis; assay: Antimicrobial activity against Mycobacterium tuberculosis H37Rv by microplate alamar blue assay; type: functional
[2] = system: Mycobacterium tuberculosis; assay: Antimicrobial activity against Mycobacterium tuberculosis H37Rv at 6.25 ug/ml by microplate alamar blue assay; type: functional
[3] = Selectivity index, ratio of IC50 for african green monkey Vero cells to MIC for Mycobacterium tuberculosis H37Rv; type: functional
[4] = system: Vero; assay: Cytotoxicity against african green monkey Vero cells after 72 hrs by MTT assay; type: cell-based, Chlorocebus sabaeus
[5] = Chlorocebus sabaeus, Vero, 72 h, read-out: IC50

Compound	MIC [1] [µg/mL]	inhibition at 6.25 µg/mL [2] [%]	Ratio [3]	IC50 [4, 5] [µg/mL]	IC50 ([4]; vero)
COc1ccc(-c2c(C#N)[n+]([O-])c3cc(C)c(C)cc3[n+]2[O-])cc1	< 0.2	90	–	–	–
COc1ccc(-c2c(C#N)[n+]([O-])c3cc(C)ccc3[n+]2[O-])cc1	< 0.2	90	–	–	–
Cc1cc2c(cc1C)[n+]([O-])c(-c1ccccc1)c(C#N)[n+]2[O-]	0.39 (≈ 1.34 µM)	90	10	3.9 (≈ 13.4 µM)	–
N#Cc1c(-c2ccccc2)[n+]([O-])c2cc(Cl)c(Cl)cc2[n+]1[O-]	0.2 (≈ 0.602 µM)	90	–	–	ND(Insoluble)
CCOC(=O)c1c(C)[n+]([O-])c2ccc(Cl)cc2[n+]1[O-]	0.2 (≈ 0.708 µM)	–	>50	–	–
Cc1cc2c(cc1C)[n+]([O-])c(-c1ccc(F)cc1)c(C#N)[n+]2[O-]	1.69 (≈ 5.46 µM)	90	>59.07	100 (≈ 323 µM)	–
N#Cc1c(-c2ccc(OC(F)(F)F)cc2)[n+]([O-])c2ccc(C(F)(F)F)cc2[n+]1[O-]	< 0.2	90	–	–	–
CCOC(=O)c1c(-c2ccccc2)[n+]([O-])c2cc(Cl)c(Cl)cc2[n+]1[O-]	< 0.2	90	–	–	–
N#Cc1c(-c2ccccc2)[n+]([O-])c2ccccc2[n+]1[O-]	0.2 (≈ 0.76 µM)	90	9.5	1.9 (≈ 7.22 µM)	–
Cc1ccc2c(c1)[n+]([O-])c(C#N)c(-c1ccccc1)[n+]2[O-]	0.39 (≈ 1.41 µM)	90	9.2	3.6 (≈ 13 µM)	–
COc1ccc2c(c1)[n+]([O-])c(C#N)c(-c1ccccc1)[n+]2[O-]	3.13 (≈ 10.7 µM)	90	–	–	ND(Insoluble)
N#Cc1c(-c2ccc(Cl)cc2)[n+]([O-])c2cc(Cl)c(Cl)cc2[n+]1[O-]	< 0.2	90	–	–	ND(Insoluble)
Cc1cc2c(cc1C)[n+]([O-])c(N1CCN(c3ccc([N+](=O)[O-])cc3)CC1)c(C#N)[n+]2[O-]	< 0.2	–	>125	–	–
Cc1c(C(=O)OCc2ccccc2)[n+]([O-])c2cc(Cl)ccc2[n+]1[O-]	0.1 (≈ 0.29 µM)	–	470	–	–
COC(=O)c1ccc(-c2c(C#N)[n+]([O-])c3cc(Cl)c(Cl)cc3[n+]2[O-])cc1	> 6.25	–	–	–	–
CC(=O)c1c(C)[n+]([O-])c2ccc(Cl)cc2[n+]1[O-]	0.78 (≈ 3.09 µM)	–	20	–	–
N#Cc1c(-c2ccc(F)cc2)[n+]([O-])c2ccc(Cl)cc2[n+]1[O-]	< 0.2	90	>258.67	51.7 (≈ 164 µM)	–
Cc1ccc2c(c1)[n+]([O-])c(C#N)c(-c1ccc(F)cc1)[n+]2[O-]	< 0.2	90	>500	> 100	–
Cc1ccc2c(c1)[n+]([O-])c(C#N)c(-c1ccc(Cl)cc1)[n+]2[O-]	0.39 (≈ 1.25 µM)	90	1.15	0.45 (≈ 1.44 µM)	–
N#Cc1c(-c2ccc(F)cc2)[n+]([O-])c2cc(Cl)c(Cl)cc2[n+]1[O-]	< 0.2	90	>37.06	7.41 (≈ 21.2 µM)	–
COc1ccc(-c2c(C#N)[n+]([O-])c3ccccc3[n+]2[O-])cc1	< 0.2	90	–	–	–
N#Cc1c(-c2ccc(OC(F)(F)F)cc2)[n+]([O-])c2ccccc2[n+]1[O-]	< 0.2	90	–	–	–
COc1ccc(-c2c(C#N)[n+]([O-])c3cc(OC)ccc3[n+]2[O-])cc1	< 0.2	90	–	–	–

Compound	MIC [1] [µg/mL]	inhibition at 6.25 µg/mL [2] [%]	Ratio [3]	IC50 [4, 5] [µg/mL]	IC50 ([4]; vero)
COc1ccc(-c2c(C#N)[n+]([O-])c3cc(Cl)c(Cl)cc3[n+]2[O-])cc1	< 0.2	90	–	–	–
N#Cc1c(-c2ccc(F)cc2)[n+]([O-])c2ccccc2[n+]1[O-]	< 0.2	90	>19.16	3.83 (≈ 13.6 µM)	–
N#Cc1c(-c2ccccc2)[n+]([O-])c2ccc(F)cc2[n+]1[O-]	< 0.2	90	>88.03	17.6 (≈ 62.6 µM)	–
N#Cc1c(-c2ccc(F)cc2)[n+]([O-])c2ccc(F)cc2[n+]1[O-]	< 0.2	90	>124.67	24.9 (≈ 83.3 µM)	–
N#Cc1c(-c2ccc(Cl)cc2)[n+]([O-])c2ccc(F)cc2[n+]1[O-]	< 0.2	90	>239.69	47.9 (≈ 152 µM)	–
N#Cc1c(-c2ccc(OC(F)(F)F)cc2)[n+]([O-])c2ccc(Cl)cc2[n+]1[O-]	< 0.2	90	–	–	–
Cc1ccc2c(c1)[n+]([O-])c(C#N)c(-c1ccc(OC(F)(F)F)cc1)[n+]2[O-]	< 0.2	90	–	–	–
COc1ccc2c(c1)[n+]([O-])c(C#N)c(-c1ccc(OC(F)(F)F)cc1)[n+]2[O-]	< 0.2	90	–	–	–
Cc1cc2c(cc1C)[n+]([O-])c(-c1ccc(OC(F)(F)F)cc1)c(C#N)[n+]2[O-]	0.42 (≈ 1.12 µM)	90	–	–	–
N#Cc1c(-c2ccccc2)[n+]([O-])c2ccc(C(F)(F)F)cc2[n+]1[O-]	< 0.2	90	>18.89	3.78 (≈ 11.4 µM)	–
N#Cc1c(-c2ccc(F)cc2)[n+]([O-])c2ccc(C(F)(F)F)cc2[n+]1[O-]	< 0.2	90	>4.94	0.99 (≈ 2.83 µM)	–
N#Cc1c(-c2ccc(Cl)cc2)[n+]([O-])c2ccc(Cl)cc2[n+]1[O-]	0.39 (≈ 1.17 µM)	90	–	–	ND(Insoluble)
Cc1cc2c(cc1C)[n+]([O-])c(-c1ccc(Cl)cc1)c(C#N)[n+]2[O-]	0.78 (≈ 2.39 µM)	90	>12.8	> 10	–
N#Cc1c(-c2ccccc2)[n+]([O-])c2ccc(Cl)cc2[n+]1[O-]	0.39 (≈ 1.31 µM)	90	0.92	0.36 (≈ 1.21 µM)	–
N#Cc1c(-c2ccc(Cl)cc2)[n+]([O-])c2ccccc2[n+]1[O-]	0.39 (≈ 1.31 µM)	90	0.92	0.36 (≈ 1.21 µM)	–
COc1ccc2c(c1)[n+]([O-])c(C#N)c(-c1ccc(Cl)cc1)[n+]2[O-]	0.78 (≈ 2.38 µM)	90	1.3	1 (≈ 3.05 µM)	–
COc1ccc2c(c1)[n+]([O-])c(C#N)c(-c1ccc(F)cc1)[n+]2[O-]	< 0.2	90	>475.55	95.1 (≈ 306 µM)	–
Cc1ccc(-c2c(C#N)[n+]([O-])c3cc(C)ccc3[n+]2[O-])cc1	0.78 (≈ 2.68 µM)	90	–	–	ND(Insoluble)
COc1ccc(-c2c(C#N)[n+]([O-])c3cc(Cl)ccc3[n+]2[O-])cc1	< 0.2	90	–	–	–
N#Cc1c(-c2ccc(OC(F)(F)F)cc2)[n+]([O-])c2ccc(F)cc2[n+]1[O-]	< 0.2	90	–	–	–
N#Cc1c(-c2ccc(OC(F)(F)F)cc2)[n+]([O-])c2cc(Cl)c(Cl)cc2[n+]1[O-]	< 0.2	90	–	–	–
N#Cc1c(-c2ccc(Cl)cc2)[n+]([O-])c2ccc(C(F)(F)F)cc2[n+]1[O-]	< 0.2	90	>6.68	1.34 (≈ 3.66 µM)	–
